Test [1] deals with nicotinic receptors containing the α4β2 subunit (Rattus norvegicus, UniProt P09483+P12390). Nature of the test: [3H]-cytisine binding to rat brain membranes, affinity for α4β2 nicotinic receptors. Particulars: inhibition of specific binding of 1 nM [3H]-cytisine, rat whole brain membranes. The procedure:
For instance, they were studied with regard to their affinity for nicotinic receptors containing the α4β2 subunit in accordance with the methods described by Anderson and Arneric in Eur. J. Pharmacol. 1994, 253, 261 and by Hall et al. in Brain Res. 1993, 600, 127. Male Sprague Dawley rats weighing 150 to 200 g are decapitated and the whole brain is removed rapidly, homogenized in 15 volumes of 0.32 M sucrose solution at […] and then centrifuged at 1000 G for 10 min. The pellet is discarded and the supernatant is centrifuged at 20,000 G at 4° C. for 20 min. The pellet is recovered and homogenized using a Polytron™ mill in 15 volumes of double-distilled water at 4° C., then centrifuged at 8,000 G for 20 min. […]
On the day of the experiment the tissue is slowly thawed and is suspended in 3 volumes of buffer. […] The reaction is stopped by filtration on Whatman GF/B™ filters pretreated with polyethyleneimine, the filters are rinsed with twice 5 ml of buffer at 4° C. and the radioactivity retained on the filter is measured by liquid scintigraphy. The non-specific binding is determined in the presence of 10 μM (−)-nicotine; the nonspecific binding represents 75% to 85% of the total binding recovered on the filter. […]

Test [2] deals with nicotinic receptors containing the α7 subunit (Rattus norvegicus, UniProt Q05941). Nature of the test: biochemical. In kind it is binding.
Chain of nicotinic receptors containing the α7 subunit (Q05941 23-502): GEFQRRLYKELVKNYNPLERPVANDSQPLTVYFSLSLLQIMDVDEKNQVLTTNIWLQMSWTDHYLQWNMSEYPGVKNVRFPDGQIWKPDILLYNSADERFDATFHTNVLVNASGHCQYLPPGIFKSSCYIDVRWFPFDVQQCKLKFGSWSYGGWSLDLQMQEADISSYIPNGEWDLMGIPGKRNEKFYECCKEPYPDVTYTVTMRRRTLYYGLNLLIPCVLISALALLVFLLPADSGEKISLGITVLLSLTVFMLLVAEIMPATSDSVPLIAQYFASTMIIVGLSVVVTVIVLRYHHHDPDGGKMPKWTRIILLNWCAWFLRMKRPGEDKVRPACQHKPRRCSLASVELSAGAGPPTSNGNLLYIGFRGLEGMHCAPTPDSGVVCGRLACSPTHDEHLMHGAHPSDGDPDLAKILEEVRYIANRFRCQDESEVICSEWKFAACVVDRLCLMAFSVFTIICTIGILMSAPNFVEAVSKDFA

pIC50: −log10 of the molar value. Where a name gives a salt, the structure may show the parent alone.

Chain of nicotinic receptors containing the α4β2 subunit (P09483 31-630): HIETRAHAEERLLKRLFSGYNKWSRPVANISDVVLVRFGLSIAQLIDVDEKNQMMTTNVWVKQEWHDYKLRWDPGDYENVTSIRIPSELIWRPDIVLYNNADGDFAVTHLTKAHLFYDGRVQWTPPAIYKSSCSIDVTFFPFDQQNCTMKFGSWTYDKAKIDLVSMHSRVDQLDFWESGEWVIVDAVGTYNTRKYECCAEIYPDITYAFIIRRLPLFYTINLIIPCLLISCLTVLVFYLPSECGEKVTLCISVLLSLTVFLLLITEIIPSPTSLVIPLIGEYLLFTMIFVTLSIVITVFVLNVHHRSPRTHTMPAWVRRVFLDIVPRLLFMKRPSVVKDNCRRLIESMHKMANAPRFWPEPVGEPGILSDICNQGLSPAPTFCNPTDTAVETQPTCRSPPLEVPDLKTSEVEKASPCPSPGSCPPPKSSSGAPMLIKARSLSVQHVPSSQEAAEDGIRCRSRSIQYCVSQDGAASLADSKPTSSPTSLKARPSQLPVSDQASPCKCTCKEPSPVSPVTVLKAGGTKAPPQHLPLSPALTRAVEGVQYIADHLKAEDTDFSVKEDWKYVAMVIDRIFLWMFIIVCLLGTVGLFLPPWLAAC
Chain of nicotinic receptors containing the α4β2 subunit (P12390 25-500): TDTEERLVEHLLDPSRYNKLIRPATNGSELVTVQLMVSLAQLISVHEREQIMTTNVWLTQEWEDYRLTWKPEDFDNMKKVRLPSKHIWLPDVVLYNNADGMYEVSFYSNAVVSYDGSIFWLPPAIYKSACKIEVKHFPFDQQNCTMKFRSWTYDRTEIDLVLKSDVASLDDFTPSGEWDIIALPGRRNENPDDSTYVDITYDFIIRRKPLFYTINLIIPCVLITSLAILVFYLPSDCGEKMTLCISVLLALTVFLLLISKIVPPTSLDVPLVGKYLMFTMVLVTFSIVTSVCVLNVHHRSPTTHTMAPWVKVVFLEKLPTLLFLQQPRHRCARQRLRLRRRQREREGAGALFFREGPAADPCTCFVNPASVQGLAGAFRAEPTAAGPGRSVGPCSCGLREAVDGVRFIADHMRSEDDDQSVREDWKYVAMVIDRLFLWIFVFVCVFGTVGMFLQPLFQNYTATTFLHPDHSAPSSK

Consider `Cc1ccc2c(C(=O)N3CCN4CCC3C4)n[nH]c2n1` (racemic) [Compound 1, 3-(1,4-Diazabicyclo[3.2.1]oct-4-ylcarbonyl)-6-methyl-1H-pyrazolo[3,4-b]pyridine hydrobromide 2:1], for which the values for the pIC50 in test [1] and in test [2] were less than 5.00 and 7.25, respectively.

For the molecule `O=C(c1n[nH]c2ccc(F)cc12)N1CCN2CCC1C2` (racemic) [Compound 4, 3-(1,4-Diazabicyclo[3.2.1]oct-4-ylcarbonyl)-5-fluoro-1H-indazole hydrobromide 2:1], in test [2], the pIC50 (as a rule, the IC50 on a negative log10 scale, so that one unit is a factor of ten) is 7.26.

For the origin of these results see patent US7589201B2, “Derivatives of 1,4-diazabicyclo[3.2.1]octanecarboxamide, preparation method thereof and use of same in therapeutics” (Sanofi-Aventis, priority 2004, dated 2009).
